“Also recorded” adds a separate entry of the source. Where two headings read alike, the source gives them in different places.
Key:
U343 cells [1] = experiment: Cellular internalization by acid wash, U343 cells; format: cell-based, human
Source text: (§1) The human squamous carcinoma cell line A431 (ATCC, CLR 1555, Rocksville, Md., USA) and the malignant glioma cell line U343MGaC12:6 (Westermark B, Magnusson A, Heldin C H. Effect of epidermal growth factor on membrane motility and cell locomotion in cultures of human clonal glioma cells. J Neurosci Res. 1982; 8(2-3): 491-507) (from now on denoted U343) were used in all cell experiments. This A431 cell line is reported to express approximately 2×10^6 EGFR per cell, and the U343 cell line express approximately 5.5×10^5 EGFR per cell. […]
(§2) Instead of trypsinising the cells, treatment with 0.5 ml ice-cold 0.1 M glycin-HCl buffer, pH 2.5 for 6 min at 0° C. was used to extract the membrane bound fraction of the conjugate. […] The remaining radioactivity, considered to be internalized radioactivity, was collected by treatment with 0.5 ml 1 M NaOH solution at 37° C. for about 60 min. […] The collected fractions were measured in an automated gamma counter.
(§3) In this study, the degree of internalization was estimated by acid wash. Radioactivity, which was removed from cells by an acidic buffer was considered as membrane-bound, and the rest as internalized. […] More than 50% of the radioactivity was internalized at 30 min after the start of incubation in the case of glioma U343 cells.

A431 cells [2] = experiment: Cellular internalization by acid wash, A431 cells; format: cell-based, human
Source text: as §1, §2, §3

[3] = format: physicochemical
Description: Analytical liquid chromatography (LC) was performed using a HPLC system from Beckman (Fullerton, Calif., USA) consisting of a 126 pump, a 166 UV detector and a radiation detector coupled in series. Data acquisition and handling was performed using the Beckman System Gold Nouveau Chromatography Software Package. The column used was a Vydac RP 300 Å HPLC column (Vydac, USA) with the dimensions 150 mm×4.6 mm, 5 μm particle size. The applied gradient elution had the following parameters: A=10 mM TFA; B=70% acetonitrile (MeCN), 30% H2O, 10 mM TFA with UV-detection at 220 nm; flow was 1.2 mL/min; 0-2 min isocratic 20% B, 20-90% B linear gradient 8 min, 90-20% B linear gradient 2 min The quantity of ^68Ga-DOTA-hEGF and radio-impurities retained on the column could be obtained by measuring the activity of the sample injected on the column and the fractions collected from the outlet with a crystal scintillation counter. The overall loss on the system was 10%. The measured activity of the fractions of ^68Ga-DOTA-hEGF and hydrophilic radio-impurities were in agreement with the respective values obtained from the HPLC chromatograms. […]
The microwave-accelerated labeling of the conjugates (Scheme 1) was performed using a non-concentrated or a pre-concentrated generator ^68Ga-eluate. […] Pre-concentration of eluate allowed to obtain specific radioactivity of 28 MBq/nmol. […]

U343 cells [4] = experiment: Cellular retention of radioactivity after interrupted incubation, U343 cells; format: cell-based, human; details: 4 hours after interrupted incubation
Source text: as §1, with “cell. The cells were cultured in Ham's F10 medium (Biochrom Kg), supplemented with 10% fetal calf serum (Sigma), L-glutamine (2 mM) and PEST (penicillin 100 IU/ml and streptomycin 100 μg/ml) both from Biochrom Kg. During cell culture and cell experiments (unless otherwise stated) cells were grown at 37° C. in incubators with humidified air, equilibrated with 5% CO2.” for “cell.”
(§4) After the incubation, the cells were washed thoroughly to eliminate unbound conjugate, and the incubation was then continued in fresh cell culture medium. After 0.5-4 h, the cells were trypsinized, counted and measured for radioactivity, as described above.
(§5) An initial drop of radioactivity, which was most likely due to dissociation of membrane-bound conjugates, was followed by a relatively constant amount of cell-bound ^68Ga.

A431 tumor xenografts [5] = experiment: MicroPET imaging of tumor-bearing mice; format: in vivo
Description: (§6) The in vivo studies were carried out in adult female Balb/c nu/nu mice (21-25 g) (Möllegård, Denmark) with tumor xenografts. All animals were handled according to the guidelines by the Swedish Animal Welfare Agency, and the experiments were approved by the local Ethics Committee for Animal Research. The mice were injected subcutaneously with A431 tumor cells (approximately 7 million cells per tumor in 100 μl cell culture medium) in both front legs. The tumors were allowed to grow for 12-13 days before the experiments were performed, and had then reached a weight of 0.1-0.8 g.
Imaging was performed on a microPET R4 scanner (Concorde Microsystems, Inc.), with a computer-controlled bed and 10 cm transaxial and 8 cm axial field of view (FOV). […] After completion of the study the animals were decapitated under anesthesia and blood, liver, and kidney samples were collected for radioactivity measurements.
Scatter correction, random counts and dead time correction were all incorporated into the reconstruction algorithm. Radiation attenuation in each animal was measured with two rotating rod sources containing ^68 Ge/^68Ga before tracer injection and the images were corrected for radiation attenuation. […] Pharmacokinetic curves, representing the radioactivity concentrations (percentage of injected dose per gram of tissue), versus time after injection were determined accordingly. […]

A431 cells [6] = experiment: Cellular retention of radioactivity after interrupted incubation, A431 cells; format: cell-based, human; details: 4 hours after interrupted incubation
Source text: as §1, with “cell. The cells were cultured in Ham's F10 medium (Biochrom Kg), supplemented with 10% fetal calf serum (Sigma), L-glutamine (2 mM) and PEST (penicillin 100 IU/ml and streptomycin 100 μg/ml) both from Biochrom Kg. During cell culture and cell experiments (unless otherwise stated) cells were grown at 37° C. in incubators with humidified air, equilibrated with 5% CO2.” for “cell.”
as §4, §5

A431 tumor xenografts [7] = test system: A431 tumor xenografts; design: species or system Balb/c nu/nu mice; details: mouse, in vivo, iv, 0.5 h
Description: as §6
In order to estimate an influence of amount injected conjugate on uptake in tumors and normal tissues, a biodistribution study was performed. […] The mice were anesthetised by an intraperitoneal injection of a mixture of Rompun (1 mg/ml) and Ketalar (10 mg/ml), 0.2 ml per 10 g of animal weight, and killed by heart puncture. In addition to the tumors, blood, heart, pancreas, spleen, stomach, liver, kidneys, lungs, small and large intestine, muscle, bone and salivary gland were collected, weighed and measured in an automated gamma counter. The tails were also measured for radioactive content, in order to determine the accuracy of the injections. Organ values were calculated as percent of injected activity per g of organ (% IA/g).

^68Ga-DOTA-EGF: recombinant human epidermal growth factor conjugated to the chelator DOTA (one to three DOTA) and labeled with 68Ga; PET tracer
radioactivity internalized (U343 cells [1]; 30 min after the start of incubation): More than 50%
internalization rate (U343 cells [1]; acid wash, compared to A431): faster
internalization rate (A431 cells [2]): rapid process
stability in PBS [3]: stable
cell-associated radioactivity (retention) (U343 cells [4]): more than 70%
organ distribution by microPET (A431 tumor xenografts [5]; 0.16 nmol injected, liver, kidneys, tumours, pharmacokinetic curves): Prominent uptake was observed in the liver and kidneys; also recorded: rapid distribution
tumor visualization by microPET (A431 tumor xenografts [5]; 30 min after administration of 2.0 MBq, right and left leg tumors): visible with clear contrast
cell-associated radioactivity (retention) (A431 cells [6]): more than 70%
radioactivity remaining in the circulation (blood) (A431 tumor xenografts [7]; 0.016 nmol per animal): less than 1 % IA/g
uptake in the A431 tumour xenograft (A431 tumor xenografts [7]; 0.016 nmol per animal): 1.51±0.16 % IA/g
radioactivity remaining in the circulation (blood) (A431 tumor xenografts [7]; 0.16 nmol per animal): less than 1 % IA/g
uptake in the A431 tumour xenograft (A431 tumor xenografts [7]; 0.16 nmol per animal): 2.69±0.29 % IA/g

— patent US20110117012A1, “RADIOLABELED GALLIUM COMPLEXES, METHODS FOR SYNTHESIS AND USE FOR PET IMAGING OF EGFR EXPRESSION IN MALIGNANT TUMORS” (priority 2003, published 2011)
